From patent US12723063B2, “GIPR-agonist compounds” (Eli Lilly and Company, priority 2019, dated 2026)
*1 amine or outer side, *2 acyl side, *3 side chain or, on linkers, in order; H or OH if unused. Where a SMILES comes first, the peptide text is derived from it. Side-chain parts run from the residue outwards. [ ]: non-standard residue; d: D form. The star is where a group is joined. C20 diacid = O=C(O)CCCCCCCCCCCCCCCCCCC(=O)*; γGlu = O=C(O)[C@H](CCC(=O)[*:2])N[*:1]; 4Pal = N[C@@H](Cc1ccncc1)C(=O)O; αMeL = CC(C)C[C@](C)(N)C(=O)O; Iva = CC[C@](C)(N)C(=O)O; Orn = NCCC[C@H](N)C(=O)O; AEEA = NCCOCCOCC(=O)O; Aib = CC(C)(N)C(=O)O

Tests used:
human GcgR = biological target: T1, human GcgR (Homo sapiens, UniProt P47871); assay: [125I]-Glucagon binding, SPA with WGA beads, 0.1% bacitracin; conditions: geometric mean, read-out: hGcgR Ki
T1 construct: expressed in transfected cells; crude membranes
T1 sequence (P47871 26-477): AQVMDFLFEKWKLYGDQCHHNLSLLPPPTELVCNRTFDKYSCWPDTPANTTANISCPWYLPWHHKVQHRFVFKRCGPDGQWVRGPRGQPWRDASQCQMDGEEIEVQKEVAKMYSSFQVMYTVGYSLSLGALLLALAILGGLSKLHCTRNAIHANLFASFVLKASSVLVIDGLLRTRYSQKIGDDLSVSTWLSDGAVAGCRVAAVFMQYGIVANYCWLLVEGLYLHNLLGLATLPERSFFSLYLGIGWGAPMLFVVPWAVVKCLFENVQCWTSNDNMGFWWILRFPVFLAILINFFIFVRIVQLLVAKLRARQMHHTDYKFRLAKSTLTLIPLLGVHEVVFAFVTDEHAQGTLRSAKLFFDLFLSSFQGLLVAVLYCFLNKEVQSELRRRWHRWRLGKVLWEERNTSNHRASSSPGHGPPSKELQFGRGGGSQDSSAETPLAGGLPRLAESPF
In short: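 SPA competition binding with WGA beads on crude membranes from HEK293 cells stably expressing hGcgR. Buffer: 25 mM HEPES pH 7.4, 2.5 mM CaCl2, 1 mM MgCl2, 0.1% bacitracin, 0.003% Tween-20; 10-point 3-fold dilutions, NSB with 1 μM Gcg.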

[1] = biological target: T2, human GLP-1 receptor (GLP-1R) (Homo sapiens, UniProt P43220); assay: cAMP functional assay (HTRF) in HEK293 cells in presence of 0.1% casein; assay type: cell-based; conditions: HEK293 cells expressing human GLP-1R, geometric mean, read-out: hGLP1R cAMP Rel EC50 nM (SEM, n)
T2 construct: expressed in transfected cells; host or cells: HEK293
T2 sequence (P43220 24-463): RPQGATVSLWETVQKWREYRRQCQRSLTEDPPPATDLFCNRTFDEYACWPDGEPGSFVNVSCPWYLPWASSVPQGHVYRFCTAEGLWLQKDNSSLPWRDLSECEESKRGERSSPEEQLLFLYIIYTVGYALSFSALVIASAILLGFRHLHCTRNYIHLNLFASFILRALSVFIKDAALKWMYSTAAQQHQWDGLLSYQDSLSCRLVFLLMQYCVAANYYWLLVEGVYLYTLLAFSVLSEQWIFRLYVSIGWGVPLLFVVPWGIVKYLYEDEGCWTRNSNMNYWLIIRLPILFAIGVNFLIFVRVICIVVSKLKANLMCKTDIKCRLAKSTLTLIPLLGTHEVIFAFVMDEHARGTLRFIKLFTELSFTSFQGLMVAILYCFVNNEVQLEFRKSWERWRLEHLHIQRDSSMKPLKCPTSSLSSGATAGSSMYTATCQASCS

SMILES | Ki (human GcgR) | EC50 [1]
CC[C@H](C)[C@H](NC(=O)[C@H](CO)NC(=O)[C@H](Cc1ccc(O)cc1)NC(=O)[C@H](CC(=O)O)NC(=O)[C@H](CO)NC(=O)[C@@H](NC(=O)[C@](C)(CC)NC(=O)[C@@H](NC(=O)CNC(=O)[C@H](CCC(=O)O)NC(=O)C(C)(C)NC(=O)[C@@H](N)Cc1ccc(O)cc1)[C@@H](C)O)[C@@H](C)CC)C(=O)N[C@@](C)(CC(C)C)C(=O)N[C@@H](CC(C)C)C(=O)N[C@@H](CC(=O)O)C(=O)N[C@@H](CCCN)C(=O)N[C@@H](CCCCNC(=O)COCCOCCNC(=O)COCCOCCNC(=O)CC[C@H](NC(=O)CCCCCCCCCCCCCCCCCCC(=O)O)C(=O)O)C(=O)N[C@@H](Cc1c[nH]cn1)C(=O)N[C@@H](CCC(N)=O)C(=O)NC(C)(C)C(=O)N[C@@H](CC(=O)O)C(=O)N[C@@H](Cc1ccccc1)C(=O)N[C@H](C(=O)N[C@@H](CCC(=O)O)C(=O)N[C@@H](Cc1ccncc1)C(=O)N[C@@H](CC(C)C)C(=O)N[C@@H](CC(C)C)C(=O)N[C@@H](CCC(=O)O)C(=O)NCC(=O)NCC(=O)N1CCC[C@H]1C(=O)N[C@@H](CO)C(=O)N[C@@H](CO)C(=O)NCC(=O)N[C@@H](C)C(=O)N1CCC[C@H]1C(=O)N1CCC[C@H]1C(=O)N1CCC[C@H]1C(=O)N[C@@H](CO)C(N)=O)C(C)C [Example 76] (H-Y[Aib]EGT[Iva]ISDYSI[αMeL]LD[Orn]K([AEEA-AEEA-γGlu-C20 diacid])HQ[Aib]DFVE[4Pal]LLEGGPSSGAPPPS-NH2) | 358 nM | > 5000 nM
CC[C@H](C)[C@H](NC(=O)[C@H](CO)NC(=O)[C@H](Cc1ccc(O)cc1)NC(=O)[C@H](CC(=O)O)NC(=O)[C@H](CO)NC(=O)[C@@H](NC(=O)[C@](C)(CC)NC(=O)[C@@H](NC(=O)CNC(=O)[C@H](CCC(=O)O)NC(=O)C(C)(C)NC(=O)[C@@H](N)Cc1ccc(O)cc1)[C@@H](C)O)[C@@H](C)CC)C(=O)N[C@@](C)(CC(C)C)C(=O)N[C@@H](CC(C)C)C(=O)N[C@@H](CC(=O)O)C(=O)N[C@@H](CCCN)C(=O)N[C@@H](CCCCNC(=O)COCCOCCNC(=O)COCCOCCNC(=O)CC[C@H](NC(=O)CCCCCCCCCCCCCCCCCCC(=O)O)C(=O)O)C(=O)N[C@@H](Cc1c[nH]cn1)C(=O)N[C@@H](CCC(N)=O)C(=O)NC(C)(C)C(=O)N[C@@H](CC(=O)O)C(=O)N[C@@H](Cc1ccccc1)C(=O)N[C@H](C(=O)N[C@@H](CCC(=O)O)C(=O)N[C@@H](Cc1ccncc1)C(=O)N[C@@H](CC(C)C)C(=O)N[C@@H](CC(C)C)C(=O)N[C@@H](CCC(=O)O)C(=O)N[C@H](C(=O)NCC(=O)N1CCC[C@H]1C(=O)N[C@@H](CO)C(=O)N[C@@H](CO)C(=O)NCC(=O)N[C@@H](C)C(=O)N1CCC[C@H]1C(=O)N1CCC[C@H]1C(=O)N1CCC[C@H]1C(=O)N[C@@H](CO)C(N)=O)[C@@H](C)O)C(C)C [Example 77] (H-Y[Aib]EGT[Iva]ISDYSI[αMeL]LD[Orn]K([AEEA-AEEA-γGlu-C20 diacid])HQ[Aib]DFVE[4Pal]LLETGPSSGAPPPS-NH2) | > 958 nM | > 5000 nM
CC[C@H](C)[C@H](NC(=O)[C@H](Cc1ccccc1)NC(=O)[C@@H](NC(=O)CNC(=O)[C@H](CCC(=O)O)NC(=O)C(C)(C)NC(=O)[C@@H](N)Cc1ccc(O)cc1)[C@@H](C)O)C(=O)N[C@@H](CO)C(=O)N[C@@H](CC(=O)O)C(=O)N[C@@H](Cc1ccc(O)cc1)C(=O)N[C@@H](CO)C(=O)N[C@H](C(=O)N[C@@](C)(CC(C)C)C(=O)N[C@@H](CC(C)C)C(=O)N[C@@H](CC(=O)O)C(=O)N[C@@H](CCCCN)C(=O)N[C@@H](CCCCNC(=O)COCCOCCNC(=O)COCCOCCNC(=O)CC[C@H](NC(=O)CCCCCCCCCCCCCCCCCCC(=O)O)C(=O)O)C(=O)N[C@@H](Cc1c[nH]cn1)C(=O)N[C@@H](CCC(N)=O)C(=O)NC(C)(C)C(=O)N[C@@H](CC(=O)O)C(=O)N[C@@H](Cc1ccccc1)C(=O)N[C@H](C(=O)N[C@@H](CCC(=O)O)C(=O)N[C@@H](Cc1ccncc1)C(=O)N[C@@H](CC(C)C)C(=O)N[C@@H](CC(C)C)C(=O)N[C@@H](C)C(=O)N[C@@H](C)C(=O)NCC(=O)N1CCC[C@H]1C(=O)N[C@@H](CO)C(=O)N[C@@H](CO)C(=O)NCC(=O)N[C@@H](C)C(=O)N1CCC[C@H]1C(=O)N1CCC[C@H]1C(=O)N1CCC[C@H]1C(=O)N[C@@H](CO)C(N)=O)C(C)C)[C@@H](C)CC [Example 78] | 505 nM | > 5000 nM
CC[C@H](C)[C@H](NC(=O)[C@H](Cc1ccccc1)NC(=O)[C@@H](NC(=O)CNC(=O)[C@H](CCC(=O)O)NC(=O)C(C)(C)NC(=O)[C@@H](N)Cc1ccc(O)cc1)[C@@H](C)O)C(=O)N[C@@H](CO)C(=O)N[C@@H](CC(=O)O)C(=O)N[C@@H](Cc1ccc(O)cc1)C(=O)N[C@@H](CO)C(=O)N[C@H](C(=O)N[C@@](C)(CC(C)C)C(=O)N[C@@H](CC(C)C)C(=O)N[C@@H](CC(=O)O)C(=O)N[C@@H](CCCCN)C(=O)N[C@@H](CCCCNC(=O)COCCOCCNC(=O)COCCOCCNC(=O)CC[C@H](NC(=O)CCCCCCCCCCCCCCCCCCC(=O)O)C(=O)O)C(=O)N[C@@H](Cc1c[nH]cn1)C(=O)N[C@@H](CCC(N)=O)C(=O)NC(C)(C)C(=O)N[C@@H](CC(=O)O)C(=O)N[C@@H](Cc1ccccc1)C(=O)N[C@H](C(=O)N[C@@H](CCC(=O)O)C(=O)N[C@@H](Cc1ccncc1)C(=O)N[C@@H](CC(C)C)C(=O)N[C@@H](CC(C)C)C(=O)N[C@@H](C)C(=O)N[C@@H](CCC(N)=O)C(=O)NCC(=O)N1CCC[C@H]1C(=O)N[C@@H](CO)C(=O)N[C@@H](CO)C(=O)NCC(=O)N[C@@H](C)C(=O)N1CCC[C@H]1C(=O)N1CCC[C@H]1C(=O)N1CCC[C@H]1C(=O)N[C@@H](CO)C(N)=O)C(C)C)[C@@H](C)CC [Example 79] (H-Y[Aib]EGTFISDYSI[αMeL]LDKK([AEEA-AEEA-γGlu-C20 diacid])HQ[Aib]DFVE[4Pal]LLAQGPSSGAPPPS-NH2) | 888 nM | > 5000 nM
CC[C@H](C)[C@H](NC(=O)[C@H](Cc1ccccc1)NC(=O)[C@@H](NC(=O)CNC(=O)[C@H](CCC(=O)O)NC(=O)C(C)(C)NC(=O)[C@@H](N)Cc1ccc(O)cc1)[C@@H](C)O)C(=O)N[C@@H](CO)C(=O)N[C@@H](CC(=O)O)C(=O)N[C@@H](Cc1ccc(O)cc1)C(=O)N[C@@H](CO)C(=O)N[C@H](C(=O)N[C@@](C)(CC(C)C)C(=O)N[C@@H](CC(C)C)C(=O)N[C@@H](CC(=O)O)C(=O)N[C@@H](CCCN)C(=O)N[C@@H](CCCCNC(=O)COCCOCCNC(=O)COCCOCCNC(=O)CC[C@H](NC(=O)CCCCCCCCCCCCCCCCCCC(=O)O)C(=O)O)C(=O)N[C@@H](Cc1c[nH]cn1)C(=O)N[C@@H](CCC(N)=O)C(=O)NC(C)(C)C(=O)N[C@@H](CC(=O)O)C(=O)N[C@@H](Cc1ccccc1)C(=O)N[C@H](C(=O)N[C@@H](CCC(=O)O)C(=O)N[C@@H](Cc1ccncc1)C(=O)N[C@@H](CC(C)C)C(=O)N[C@@H](CC(C)C)C(=O)N[C@@H](CCC(=O)O)C(=O)N[C@H](C(=O)NCC(=O)N1CCC[C@H]1C(=O)N[C@@H](CO)C(=O)N[C@@H](CO)C(=O)NCC(=O)N[C@@H](C)C(=O)N1CCC[C@H]1C(=O)N1CCC[C@H]1C(=O)N1CCC[C@H]1C(=O)N[C@@H](CO)C(N)=O)[C@@H](C)O)C(C)C)[C@@H](C)CC [Example 80] (H-Y[Aib]EGTFISDYSI[αMeL]LD[Orn]K([AEEA-AEEA-γGlu-C20 diacid])HQ[Aib]DFVE[4Pal]LLETGPSSGAPPPS-NH2) | > 958 nM | > 5000 nM
CC[C@H](C)[C@H](NC(=O)[C@H](Cc1ccccc1)NC(=O)[C@@H](NC(=O)CNC(=O)[C@H](CCC(=O)O)NC(=O)C(C)(C)NC(=O)[C@@H](N)Cc1ccc(O)cc1)[C@@H](C)O)C(=O)N[C@@H](CO)C(=O)N[C@@H](CC(=O)O)C(=O)N[C@@H](Cc1ccc(O)cc1)C(=O)N[C@@H](CO)C(=O)N[C@H](C(=O)N[C@@](C)(CC(C)C)C(=O)N[C@@H](CC(C)C)C(=O)N[C@@H](CC(=O)O)C(=O)N[C@@H](CCCN)C(=O)N[C@@H](CCCCNC(=O)COCCOCCNC(=O)COCCOCCNC(=O)CC[C@H](NC(=O)CCCCCCCCCCCCCCCCCCC(=O)O)C(=O)O)C(=O)N[C@@H](Cc1c[nH]cn1)C(=O)N[C@@H](CCC(N)=O)C(=O)NC(C)(C)C(=O)N[C@@H](CC(=O)O)C(=O)N[C@@H](Cc1ccccc1)C(=O)N[C@H](C(=O)N[C@@H](CCC(=O)O)C(=O)N[C@@H](Cc1ccncc1)C(=O)N[C@@H](CC(C)C)C(=O)N[C@@H](CC(C)C)C(=O)N[C@@H](CCC(=O)O)C(=O)N[C@@H](CCC(N)=O)C(=O)NCC(=O)N1CCC[C@H]1C(=O)N[C@@H](CO)C(=O)N[C@@H](CO)C(=O)NCC(=O)N[C@@H](C)C(=O)N1CCC[C@H]1C(=O)N1CCC[C@H]1C(=O)N1CCC[C@H]1C(=O)N[C@@H](CO)C(N)=O)C(C)C)[C@@H](C)CC [Example 81] (H-Y[Aib]EGTFISDYSI[αMeL]LD[Orn]K([AEEA-AEEA-γGlu-C20 diacid])HQ[Aib]DFVE[4Pal]LLEQGPSSGAPPPS-NH2) | 699 nM | > 5000 nM
CC[C@H](C)[C@H](NC(=O)[C@H](Cc1ccccc1)NC(=O)[C@@H](NC(=O)CNC(=O)[C@H](CCC(=O)O)NC(=O)C(C)(C)NC(=O)[C@@H](N)Cc1ccc(O)cc1)[C@@H](C)O)C(=O)N[C@@H](CO)C(=O)N[C@@H](CC(=O)O)C(=O)N[C@@H](Cc1ccc(O)cc1)C(=O)N[C@@H](CO)C(=O)N[C@H](C(=O)N[C@@](C)(CC(C)C)C(=O)N[C@@H](CC(C)C)C(=O)N[C@@H](CC(=O)O)C(=O)N[C@@H](CCCN)C(=O)N[C@@H](CCCCNC(=O)COCCOCCNC(=O)COCCOCCNC(=O)CC[C@H](NC(=O)CCCCCCCCCCCCCCCCCCC(=O)O)C(=O)O)C(=O)N[C@@H](Cc1c[nH]cn1)C(=O)N[C@@H](CCC(N)=O)C(=O)NC(C)(C)C(=O)N[C@@H](CC(=O)O)C(=O)N[C@@H](Cc1ccccc1)C(=O)N[C@H](C(=O)N[C@@H](CCC(=O)O)C(=O)N[C@@H](Cc1ccncc1)C(=O)N[C@@H](CC(C)C)C(=O)N[C@@H](CC(C)C)C(=O)N[C@@H](CCC(=O)O)C(=O)NCC(=O)NCC(=O)N1CCC[C@H]1C(=O)N[C@@H](CO)C(=O)N[C@@H](CO)C(=O)NCC(=O)N[C@@H](C)C(=O)N1CCC[C@H]1C(=O)N1CCC[C@H]1C(=O)N1CCC[C@H]1C(=O)N[C@@H](CO)C(N)=O)C(C)C)[C@@H](C)CC [Example 82] (H-Y[Aib]EGTFISDYSI[αMeL]LD[Orn]K([AEEA-AEEA-γGlu-C20 diacid])HQ[Aib]DFVE[4Pal]LLEGGPSSGAPPPS-NH2) | 305 nM | > 5000 nM
